Measurements reported in patent US4994376A, “Detection of bacteroides gingivalis” (priority 1987, dated 1991).
Read-outs that look alike come from different tables or passages of the source.

How the values were obtained:
Format in all cases: biochemical
B. levii = conditions: β-naphthylamine liberated after 60 minutes, 37° C.
Experimental: (§1) The enzyme activity was measured by the chromogenic properties of N-CBz-glycyl-glycyl-L-arginine-β-naphthylamide which upon hydrolysis gives a visible color. The aminopeptidase activities listed in the table reflect the nanomoles of β-naphthylamine liberated after 60 minutes under the conditions described below.
(§2) After mixing, the solution is incubated for 1 hour at 37° C. and then 0.4 ml of a solution of stabilized diazonium salt, Fast Garnet GBC (0.5 mg/ml) in a 1M acetic acid buffer (pH 4.2), containing 10% Tween 20 was added to the mixture. After standing for 15 minutes at room temperature, the color reaction can be read manually by comparison with standard solutions or the absorbancy can be determined using a spectrophotometer at 525 nm. The reaction mixture without enzyme solution is used as a control.

Bacteroides gingivalis = conditions: β-naphthylamine liberated after 60 minutes, 37° C.
Experimental: as §1, §2

C. ochracea = conditions: strain ATCC 27872; β-naphthylamine liberated after 60 minutes, 37° C.
Experimental: as §1, §2

Capnocytophaga sp. = conditions: strain JD3-5; β-naphthylamine liberated after 60 minutes, 37° C.
Experimental: as §1, §2

B. corporis = experiment: Aminopeptidase activity on β-naphthylamide substrates; conditions: strain ATCC 33547; β-naphthylamine liberated after 60 minutes, 37° C.
Experimental: as §1, §2

B. denticola = experiment: as above; conditions: strain ATCC 33185; β-naphthylamine liberated after 60 minutes, 37° C.
Experimental: as §1, §2

B. intermedius = experiment: as above; conditions: strain ATCC 25611; β-naphthylamine liberated after 60 minutes, 37° C.
Experimental: as §1, §2

B. melaninogenicus = experiment: as above; conditions: strain ATCC 25845; β-naphthylamine liberated after 60 minutes, 37° C.
Experimental: as §1, §2

C. sputigena = experiment: as above; conditions: strain ATCC 33123; β-naphthylamine liberated after 60 minutes, 37° C.
Experimental: as §1, §2

"Anaerobic vibrio" = conditions: strain SN2T2; β-naphthylamine liberated after 60 minutes, 37° C.
Experimental: as §1, §2
(§3) The enzyme activity and the aminopeptidase activities were determined in the manner described above in regard to Table I.

A. seminis = conditions: strain ATCC 15768; β-naphthylamine liberated after 60 minutes, 37° C.
Experimental: as §1, §2, §3

A. viscosus = conditions: β-naphthylamine liberated after 60 minutes, 37° C.
Experimental: as §1, §2, §3

[1] = test system: Actinobacillus actinomycetemcomitans; conditions: β-naphthylamine liberated after 60 minutes, 37° C.
Experimental: as §1, §2, §3

Actinomyces israeli = conditions: β-naphthylamine liberated after 60 minutes, 37° C.
Experimental: as §1, §2, §3

Campylobacter sputorum = conditions: strain Ba1-21; β-naphthylamine liberated after 60 minutes, 37° C.
Experimental: as §1, §2, §3

Eikenella corrodens = conditions: strain BP1-6; β-naphthylamine liberated after 60 minutes, 37° C.
Experimental: as §1, §2, §3

Fusobacterium nucleatum = conditions: β-naphthylamine liberated after 60 minutes, 37° C.
Experimental: as §1, §2, §3

S. mutans = conditions: strain ATCC 25175; β-naphthylamine liberated after 60 minutes, 37° C.
Experimental: as §1, §2, §3

S. sanguis = conditions: β-naphthylamine liberated after 60 minutes, 37° C.
Experimental: as §1, §2, §3

Streptococcus mitis = conditions: β-naphthylamine liberated after 60 minutes, 37° C.
Experimental: as §1, §2, §3

V. parvula = conditions: strain ATCC 10790; β-naphthylamine liberated after 60 minutes, 37° C.
Experimental: as §1, §2, §3

Veillonella sp. = conditions: strain SE1M2; β-naphthylamine liberated after 60 minutes, 37° C.
Experimental: as §1, §2, §3

A. equuli = experiment: Aminopeptidase activity on β-naphthylamide substrates; conditions: strain ATCC 19392; β-naphthylamine liberated after 60 minutes, 37° C.
Experimental: as §1, §2, §3

A. suis = experiment: as above; conditions: strain ATCC 15557; β-naphthylamine liberated after 60 minutes, 37° C.
Experimental: as §1, §2, §3

F. periodonticum = experiment: as above; conditions: strain EK1-15; β-naphthylamine liberated after 60 minutes, 37° C.
Experimental: as §1, §2, §3

Haemophilus aphrophilus = experiment: as above; conditions: β-naphthylamine liberated after 60 minutes, 37° C.
Experimental: as §1, §2, §3

L. fermentum = experiment: as above; conditions: strain ATCC 11581; β-naphthylamine liberated after 60 minutes, 37° C.
Experimental: as §1, §2, §3

Lactobacillus casei = experiment: as above; conditions: β-naphthylamine liberated after 60 minutes, 37° C.
Experimental: as §1, §2, §3

S. salivarius = experiment: as above; conditions: β-naphthylamine liberated after 60 minutes, 37° C.
Experimental: as §1, §2, §3

Measured: Aminopeptidase activity

Cl.N=C(N)NCCC[C@H](NC(=O)CNC(=O)CNC(=O)OCc1ccccc1)C(=O)Nc1ccc2ccccc2c1 [N-CBz-Gly-Gly-Arg, N-carbobenzoxy-glycyl-glycyl-L-arginine-β-naphthylamide hydrochloride]
91 nmol: Bacteroides gingivalis; strain 381
92 nmol: Bacteroides gingivalis; strain 11-1-2
1 nmol: B. levii; strain 18-1-8 | B. corporis | "Anaerobic vibrio" | A. seminis | [1]; strain NCTC 9709 | Haemophilus aphrophilus; strain ATCC 13252 | Haemophilus aphrophilus; strain ATCC 19415
3 nmol: Fusobacterium nucleatum; strain 2
5 nmol: C. sputigena
0 nmol: B. levii; strain 18-1-5 | Capnocytophaga sp. | B. denticola | B. intermedius | B. melaninogenicus | A. viscosus; strain ATCC 19246 | A. viscosus; strain T14V | [1]; strain 67 | [1]; strain 75 | [1]; strain ATCC 29523 | [1]; strain Y4 | Actinomyces israeli; strain ATCC 12103 | Actinomyces israeli; strain DK2-3 | Campylobacter sputorum | Eikenella corrodens | Fusobacterium nucleatum; strain ATCC 25586 | S. mutans | S. sanguis; strain ATCC 10556 | S. sanguis; strain ATCC 10557 | Streptococcus mitis; strain ATCC 9815 | Streptococcus mitis; strain ATCC 15909 | Streptococcus mitis; strain ATCC 15912 | V. parvula | Veillonella sp. | A. equuli | A. suis | F. periodonticum | Haemophilus aphrophilus; strain NCTC 5908 | L. fermentum | Lactobacillus casei; strain ATCC 7469 | Lactobacillus casei; strain ATCC 11578 | Lactobacillus casei; strain ATCC 11582 | S. salivarius; strain ATCC 9759 | S. salivarius; strain ATCC 25975
8 nmol: C. ochracea
61 nmol: Bacteroides gingivalis; strain 9-14K-1
44 nmol: Bacteroides gingivalis; strain 1021
84 nmol: Bacteroides gingivalis; strain ATCC 33277
2 nmol: Fusobacterium nucleatum; strain D31A-24
143 nmol: Bacteroides gingivalis; strain FAYE 19m-1
